These results are taken from US10870647B2, “Imidazopyridine derivative, method for preparing same, and pharmaceutical composition containing same as active ingredient for preventing or treating cancer” (DAEGU-GYEONGBUK MEDICAL INNOVATION FOUNDATION, priority 2016, dated 2020).

Experiment in all cases: Kinase selectivity, scanMAX Kinase assay panel (DiscoverX), % control at 1 uM
Common to all, as to type: binding

The target of test [1] is T1, scanMAX Kinase assay panel (Homo sapiens, UniProt P49674).
T1 construct: purchased DiscoverX
As to conditions: CSNK1E; 1 uM; read-out: Percent Control (%). In short, it runs like this:
(§1)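 Compounds were tested at 1 uM in DMSO against each enzyme in the panel. Percent control was calculated as (compound − positive control)/(negative control − positive control) × 100, and a compound was scored active on a kinase when this value fell below 35.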

Test [2] has as its target T2, scanMAX Kinase assay panel (Homo sapiens, UniProt P50613).
T2 construct: purchased DiscoverX
As to conditions: CDK7; 1 uM; read-out: Percent Control (%). In short, it runs like this:
as §1

Test [3] addresses T3, scanMAX Kinase assay panel (Homo sapiens, UniProt Q9P1W9).
T3 construct: purchased DiscoverX
The note with it: PIM2; 1 uM; read-out: Percent Control (%). The procedure, abridged: as §1

Test [4] deals with T4, scanMAX Kinase assay panel (Homo sapiens, UniProt P51812).
T4 construct: purchased DiscoverX
As to conditions: 1 uM, read-out: Percent Control (%). The procedure, abridged:
as §1

The target in test [5] is T5, scanMAX Kinase assay panel (Homo sapiens, UniProt O75582).
T5 construct: purchased DiscoverX
As to conditions: 1 uM, read-out: Percent Control (%). In short, it runs like this:
as §1

For test [6], the target named is T6, scanMAX Kinase assay panel (Homo sapiens, UniProt Q9UPZ9).
T6 construct: purchased DiscoverX
T6 sequence (Q9UPZ9 1-632): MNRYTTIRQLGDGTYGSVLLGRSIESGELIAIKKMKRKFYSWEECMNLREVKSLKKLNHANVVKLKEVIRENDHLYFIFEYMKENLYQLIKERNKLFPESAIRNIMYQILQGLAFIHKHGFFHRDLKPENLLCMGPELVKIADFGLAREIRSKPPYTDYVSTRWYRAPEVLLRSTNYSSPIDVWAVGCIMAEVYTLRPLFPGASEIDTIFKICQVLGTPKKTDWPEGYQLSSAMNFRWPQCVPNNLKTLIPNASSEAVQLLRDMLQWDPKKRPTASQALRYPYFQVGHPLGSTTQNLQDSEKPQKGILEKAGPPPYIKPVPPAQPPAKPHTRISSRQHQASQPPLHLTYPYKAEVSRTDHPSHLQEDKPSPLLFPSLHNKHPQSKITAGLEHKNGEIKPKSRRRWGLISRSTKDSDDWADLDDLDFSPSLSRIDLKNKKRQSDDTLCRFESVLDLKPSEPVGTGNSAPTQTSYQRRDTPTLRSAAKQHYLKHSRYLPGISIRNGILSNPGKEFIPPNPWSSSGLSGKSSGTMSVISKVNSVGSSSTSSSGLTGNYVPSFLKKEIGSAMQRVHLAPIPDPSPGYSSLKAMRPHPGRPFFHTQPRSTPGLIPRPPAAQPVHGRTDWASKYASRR
The note with it: ICK; 1 uM; read-out: Percent Control (%). In short, it runs like this: as §1

Test [7] has as its target T7, scanMAX Kinase assay panel (Homo sapiens, UniProt Q9BUB5).
T7 construct: purchased DiscoverX
The note with it: MKNK1; 1 uM; read-out: Percent Control (%). The procedure, abridged:
as §1

For test [8], the target named is T8, scanMAX Kinase assay panel (Homo sapiens, UniProt Q86UX6).
T8 construct: purchased DiscoverX
The note with it: YANK3; 1 uM; read-out: Percent Control (%). The procedure, abridged: as §1

For test [9], the target named is T9, scanMAX Kinase assay panel (Homo sapiens, UniProt Q9UQM7).
T9 construct: purchased DiscoverX
As to conditions: CAMK2A; 1 uM; read-out: Percent Control (%). The procedure, abridged: as §1

Test [10] concerns the target T10, scanMAX Kinase assay panel (Homo sapiens, UniProt Q8IVH8).
T10 construct: purchased DiscoverX
T10 sequence (Q8IVH8 1-894): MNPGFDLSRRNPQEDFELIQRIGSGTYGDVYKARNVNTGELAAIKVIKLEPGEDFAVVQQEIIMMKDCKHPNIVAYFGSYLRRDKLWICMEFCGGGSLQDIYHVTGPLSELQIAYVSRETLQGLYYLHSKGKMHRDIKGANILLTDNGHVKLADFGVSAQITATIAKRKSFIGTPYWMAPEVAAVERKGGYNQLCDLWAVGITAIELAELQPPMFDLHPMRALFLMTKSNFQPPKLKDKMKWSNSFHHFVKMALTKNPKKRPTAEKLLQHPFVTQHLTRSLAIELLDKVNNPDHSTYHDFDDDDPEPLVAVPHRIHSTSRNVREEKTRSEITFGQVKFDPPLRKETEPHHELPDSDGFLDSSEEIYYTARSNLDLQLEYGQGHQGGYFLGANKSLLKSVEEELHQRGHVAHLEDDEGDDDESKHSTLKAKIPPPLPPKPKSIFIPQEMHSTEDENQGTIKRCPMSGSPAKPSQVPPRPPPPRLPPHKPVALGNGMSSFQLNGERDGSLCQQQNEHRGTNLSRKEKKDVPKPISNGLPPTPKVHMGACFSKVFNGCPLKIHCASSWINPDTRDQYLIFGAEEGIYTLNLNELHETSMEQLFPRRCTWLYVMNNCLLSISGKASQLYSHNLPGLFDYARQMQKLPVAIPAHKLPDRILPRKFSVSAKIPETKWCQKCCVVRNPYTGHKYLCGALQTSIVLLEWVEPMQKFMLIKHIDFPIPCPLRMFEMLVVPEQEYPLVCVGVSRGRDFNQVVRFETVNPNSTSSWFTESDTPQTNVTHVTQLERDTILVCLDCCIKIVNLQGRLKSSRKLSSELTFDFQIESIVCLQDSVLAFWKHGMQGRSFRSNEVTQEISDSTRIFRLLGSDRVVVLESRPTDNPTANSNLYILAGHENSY
The note with it: MAP4K3; 1 uM; read-out: Percent Control (%). In short, it runs like this:
as §1

Test [11] deals with T11, scanMAX Kinase assay panel (Homo sapiens, UniProt P28482).
T11 construct: purchased DiscoverX
As to conditions: ERK2; 1 uM; read-out: Percent Control (%). In short, it runs like this: as §1

Like-named read-outs stand apart in the source and are kept apart here.

T2 sequence (P50613 whole entry): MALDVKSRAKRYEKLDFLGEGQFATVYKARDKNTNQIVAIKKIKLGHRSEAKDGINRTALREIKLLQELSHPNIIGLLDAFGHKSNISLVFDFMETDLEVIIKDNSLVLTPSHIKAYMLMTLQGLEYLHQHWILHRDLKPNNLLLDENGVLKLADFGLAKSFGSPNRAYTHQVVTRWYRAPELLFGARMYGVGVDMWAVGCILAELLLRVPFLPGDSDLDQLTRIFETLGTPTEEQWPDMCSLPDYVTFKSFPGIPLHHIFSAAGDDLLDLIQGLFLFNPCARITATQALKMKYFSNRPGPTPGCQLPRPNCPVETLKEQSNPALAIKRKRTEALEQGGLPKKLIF
T7 sequence (Q9BUB5 whole entry): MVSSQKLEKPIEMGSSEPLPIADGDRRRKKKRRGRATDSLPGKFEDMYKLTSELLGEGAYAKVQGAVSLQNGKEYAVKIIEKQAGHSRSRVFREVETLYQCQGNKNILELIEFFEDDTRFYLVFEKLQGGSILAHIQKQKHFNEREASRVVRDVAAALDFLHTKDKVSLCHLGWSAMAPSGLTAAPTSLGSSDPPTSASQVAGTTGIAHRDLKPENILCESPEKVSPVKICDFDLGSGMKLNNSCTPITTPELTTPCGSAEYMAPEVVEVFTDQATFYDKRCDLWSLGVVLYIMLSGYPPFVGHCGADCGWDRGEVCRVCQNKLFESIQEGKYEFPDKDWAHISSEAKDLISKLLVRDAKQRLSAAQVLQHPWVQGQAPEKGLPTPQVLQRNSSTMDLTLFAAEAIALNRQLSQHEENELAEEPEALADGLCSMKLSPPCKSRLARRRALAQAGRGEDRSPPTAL
T9 sequence (Q9UQM7 whole entry): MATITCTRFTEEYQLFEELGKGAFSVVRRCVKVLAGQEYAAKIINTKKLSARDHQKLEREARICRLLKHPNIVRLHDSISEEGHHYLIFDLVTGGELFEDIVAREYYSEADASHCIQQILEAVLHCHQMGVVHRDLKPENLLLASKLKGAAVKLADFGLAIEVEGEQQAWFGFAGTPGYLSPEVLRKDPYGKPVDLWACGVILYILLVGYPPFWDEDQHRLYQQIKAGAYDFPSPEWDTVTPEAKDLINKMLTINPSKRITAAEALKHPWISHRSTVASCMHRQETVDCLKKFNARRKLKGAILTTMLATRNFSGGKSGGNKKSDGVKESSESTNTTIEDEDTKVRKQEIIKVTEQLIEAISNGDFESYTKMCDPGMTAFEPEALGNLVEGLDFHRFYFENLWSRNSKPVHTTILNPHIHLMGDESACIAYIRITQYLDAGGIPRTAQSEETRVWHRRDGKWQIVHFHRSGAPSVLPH
T4 sequence (P51812 whole entry): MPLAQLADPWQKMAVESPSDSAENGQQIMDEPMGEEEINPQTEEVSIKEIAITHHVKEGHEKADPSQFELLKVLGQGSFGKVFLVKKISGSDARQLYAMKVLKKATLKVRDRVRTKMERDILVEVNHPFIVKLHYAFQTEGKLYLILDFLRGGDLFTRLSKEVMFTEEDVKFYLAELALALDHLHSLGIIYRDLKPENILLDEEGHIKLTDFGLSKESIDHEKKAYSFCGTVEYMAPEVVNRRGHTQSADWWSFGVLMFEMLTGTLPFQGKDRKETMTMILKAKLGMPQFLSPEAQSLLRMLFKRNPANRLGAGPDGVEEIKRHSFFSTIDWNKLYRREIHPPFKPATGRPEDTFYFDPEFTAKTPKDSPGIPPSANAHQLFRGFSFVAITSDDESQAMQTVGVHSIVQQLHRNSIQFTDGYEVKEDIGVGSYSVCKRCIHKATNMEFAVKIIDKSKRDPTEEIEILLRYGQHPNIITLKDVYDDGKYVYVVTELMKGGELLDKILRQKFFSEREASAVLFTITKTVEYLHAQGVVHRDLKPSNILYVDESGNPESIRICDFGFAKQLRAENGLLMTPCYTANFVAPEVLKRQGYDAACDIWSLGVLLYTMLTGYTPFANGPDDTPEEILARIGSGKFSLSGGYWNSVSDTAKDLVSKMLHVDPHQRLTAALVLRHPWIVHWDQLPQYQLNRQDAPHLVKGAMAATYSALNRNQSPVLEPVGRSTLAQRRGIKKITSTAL
T5 sequence (O75582 whole entry): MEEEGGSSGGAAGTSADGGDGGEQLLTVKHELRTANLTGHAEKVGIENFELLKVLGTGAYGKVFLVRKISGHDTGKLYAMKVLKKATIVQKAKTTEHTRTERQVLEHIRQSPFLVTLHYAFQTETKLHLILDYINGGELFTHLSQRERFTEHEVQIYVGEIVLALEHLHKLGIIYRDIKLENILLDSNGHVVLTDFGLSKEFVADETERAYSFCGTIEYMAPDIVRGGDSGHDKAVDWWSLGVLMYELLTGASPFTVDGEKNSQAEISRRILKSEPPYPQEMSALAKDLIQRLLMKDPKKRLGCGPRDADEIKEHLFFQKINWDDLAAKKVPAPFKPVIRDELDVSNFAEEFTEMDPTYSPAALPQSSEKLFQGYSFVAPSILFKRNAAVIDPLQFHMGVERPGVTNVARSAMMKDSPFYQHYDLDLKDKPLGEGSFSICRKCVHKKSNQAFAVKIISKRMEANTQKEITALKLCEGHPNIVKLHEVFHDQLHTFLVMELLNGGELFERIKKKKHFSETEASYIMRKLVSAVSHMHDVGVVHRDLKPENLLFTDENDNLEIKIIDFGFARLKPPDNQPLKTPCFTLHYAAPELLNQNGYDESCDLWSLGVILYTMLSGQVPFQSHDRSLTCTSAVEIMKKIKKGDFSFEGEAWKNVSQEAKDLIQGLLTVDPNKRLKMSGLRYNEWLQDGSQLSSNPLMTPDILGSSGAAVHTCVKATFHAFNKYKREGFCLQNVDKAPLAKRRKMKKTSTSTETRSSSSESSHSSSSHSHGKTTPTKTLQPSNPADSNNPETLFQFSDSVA
T1 sequence (P49674 whole entry): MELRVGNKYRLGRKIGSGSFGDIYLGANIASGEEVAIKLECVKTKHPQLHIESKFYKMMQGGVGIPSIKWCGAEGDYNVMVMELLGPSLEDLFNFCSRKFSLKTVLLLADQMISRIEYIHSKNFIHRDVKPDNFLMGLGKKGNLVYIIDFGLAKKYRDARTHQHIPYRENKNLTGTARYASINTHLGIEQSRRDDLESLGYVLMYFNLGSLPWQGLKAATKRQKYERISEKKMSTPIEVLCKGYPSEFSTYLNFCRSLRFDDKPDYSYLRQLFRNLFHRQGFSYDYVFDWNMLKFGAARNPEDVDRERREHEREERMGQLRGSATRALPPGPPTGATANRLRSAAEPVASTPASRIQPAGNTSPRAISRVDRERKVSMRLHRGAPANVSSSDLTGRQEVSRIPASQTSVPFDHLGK
T11 sequence (P28482 whole entry): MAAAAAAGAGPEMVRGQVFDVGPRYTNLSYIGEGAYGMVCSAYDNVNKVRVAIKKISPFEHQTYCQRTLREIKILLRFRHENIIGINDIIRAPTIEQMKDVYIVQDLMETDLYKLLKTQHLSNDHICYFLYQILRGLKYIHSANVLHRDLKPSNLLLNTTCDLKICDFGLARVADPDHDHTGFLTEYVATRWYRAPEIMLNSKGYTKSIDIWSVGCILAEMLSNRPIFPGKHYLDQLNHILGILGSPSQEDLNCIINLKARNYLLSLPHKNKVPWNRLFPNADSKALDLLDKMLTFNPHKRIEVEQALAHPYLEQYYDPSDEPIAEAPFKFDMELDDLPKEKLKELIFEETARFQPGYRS
T3 sequence (Q9P1W9 whole entry): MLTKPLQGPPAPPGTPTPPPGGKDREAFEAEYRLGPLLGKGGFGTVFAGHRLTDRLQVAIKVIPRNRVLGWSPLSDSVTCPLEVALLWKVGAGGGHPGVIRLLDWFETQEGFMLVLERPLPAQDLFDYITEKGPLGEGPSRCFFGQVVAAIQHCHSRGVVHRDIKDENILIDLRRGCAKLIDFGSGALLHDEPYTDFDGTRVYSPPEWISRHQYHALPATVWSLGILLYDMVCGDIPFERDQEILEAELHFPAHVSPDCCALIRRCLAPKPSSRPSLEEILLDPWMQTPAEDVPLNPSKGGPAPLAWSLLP
T8 sequence (Q86UX6 whole entry): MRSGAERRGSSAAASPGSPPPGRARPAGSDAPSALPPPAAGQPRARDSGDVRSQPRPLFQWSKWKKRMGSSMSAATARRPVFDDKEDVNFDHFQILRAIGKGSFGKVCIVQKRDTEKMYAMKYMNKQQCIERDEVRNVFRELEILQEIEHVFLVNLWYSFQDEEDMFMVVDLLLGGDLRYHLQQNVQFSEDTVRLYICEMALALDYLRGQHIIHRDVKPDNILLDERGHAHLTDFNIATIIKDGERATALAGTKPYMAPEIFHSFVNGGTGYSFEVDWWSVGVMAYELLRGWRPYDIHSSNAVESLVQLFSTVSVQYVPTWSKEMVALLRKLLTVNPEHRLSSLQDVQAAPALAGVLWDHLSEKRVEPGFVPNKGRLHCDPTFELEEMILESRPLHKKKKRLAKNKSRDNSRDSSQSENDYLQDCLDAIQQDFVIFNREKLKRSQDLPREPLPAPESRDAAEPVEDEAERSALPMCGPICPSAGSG

Regarding `Cc1ccc(C(=O)Nc2ccc(CN3CCN(C)CC3)c(C(F)(F)F)c2)cc1C#Cc1cnc2c(Nc3cnn(C)c3)cccn12` [Example 1, 4-methyl-3-((8-((1-methyl-1H-pyrazol-4-yl)amino)imidazo[1,2-a]pyridin-3-yl)ethynyl)-N-(4-((4-methylpiperazin-1-yl)methyl)-3-(trifluoromethyl)phenyl)benzamide], the remaining binding at 1 µM in test [1] is 90%; in [2], 4%; in test [3], 100%; in test [4] (RSK2 (Kin.Dom.1-N-terminal)), 35%; in test [4] (RSK2 (Kin.Dom.2-C-terminal)), 93%; in test [5] (RPS6KA5 (Kin.Dom.1-N-terminal)) it was 38%. Moreover, the remaining binding at 1 µM amounted to 69% in [5] (RPS6KA5 (Kin.Dom.2-C-terminal)); 58% in test [6]; 47% in [7]; 74% in test [8]; 82% in test [9]; 25% in test [10]. Besides, the remaining binding at 1 µM in [11] is 100%.

As for `Cc1ccc(NC(=O)C2(C(=O)Nc3ccc(F)cc3)CC2)cc1C#Cc1cnc2c(Nc3cnn(C(C)C)c3)cccn12` [Example 78], the remaining binding at 1 µM in [1] was 94%; in [2], 82%; in test [3] it was 100%; in test [4] (RSK2 (Kin.Dom.1-N-terminal)), 99%; in test [4] (RSK2 (Kin.Dom.2-C-terminal)), 81%; in [5] (RPS6KA5 (Kin.Dom.1-N-terminal)), 100%. In addition, the remaining binding at 1 µM in test [5] (RPS6KA5 (Kin.Dom.2-C-terminal)) stood at 100%; in test [6] it was 100%; in test [7], 100%; in [8] it was 99%; in [9], 100%; in test [10], 100%. For the same compound, the remaining binding at 1 µM in [11] came to 100%.

Regarding `Cc1cn(-c2cc(NC(=O)c3ccc(C)c(C#Cc4cnc5c(Nc6cnn(C)c6)cccn45)c3)cc(C(F)(F)F)c2)cn1` [Example 12, 4-methyl-N-(3-(4-methyl-1H-imidazol-1-yl)-5-(trifluoromethyl)phenyl)-3-((8-((1-methyl-1H-pyrazol-4-yl)amino)imidazo[1,2-a]pyridin-3-yl)ethynyl)benzamide], the remaining binding at 1 µM in [1] was determined as 99%; in [2] it was 66%; in [3], 91%; in [4] (RSK2 (Kin.Dom.1-N-terminal)), 100%; in test [4] (RSK2 (Kin.Dom.2-C-terminal)) it was 94%; in test [5] (RPS6KA5 (Kin.Dom.1-N-terminal)), 99%. Besides, the remaining binding at 1 µM in test [5] (RPS6KA5 (Kin.Dom.2-C-terminal)) came out at 94%; in test [6], 100%; in test [7], 100%; in test [8] it was 81%; in [9], 96%; in [10] it was 66%. Also, the remaining binding at 1 µM in test [11] worked out at 92%.
